Measurements from patent US20250177396A1, “POLO-LIKE KINASE 4 (PLK4) INHIBITORS, PHARMACEUTICAL COMPOSITIONS, METHODS OF PREPARATION AND USES THEREOF” (Repare Therapeutics Inc., priority 2022, published 2025).

The molecules below were run against T1, PLK4 (Homo sapiens, UniProt O00444) (assay: PLK4 NanoBRET target engagement assay). Details: HEK293 T cells transfected with PLK4 NanoLuc fusion vector; K-5 tracer; 2 hrs incubation.
T1 construct: expressed in transfected cells; host or cells: HEK293 T cells (ATCC CRL-3216)
T1 sequence (O00444 1-970): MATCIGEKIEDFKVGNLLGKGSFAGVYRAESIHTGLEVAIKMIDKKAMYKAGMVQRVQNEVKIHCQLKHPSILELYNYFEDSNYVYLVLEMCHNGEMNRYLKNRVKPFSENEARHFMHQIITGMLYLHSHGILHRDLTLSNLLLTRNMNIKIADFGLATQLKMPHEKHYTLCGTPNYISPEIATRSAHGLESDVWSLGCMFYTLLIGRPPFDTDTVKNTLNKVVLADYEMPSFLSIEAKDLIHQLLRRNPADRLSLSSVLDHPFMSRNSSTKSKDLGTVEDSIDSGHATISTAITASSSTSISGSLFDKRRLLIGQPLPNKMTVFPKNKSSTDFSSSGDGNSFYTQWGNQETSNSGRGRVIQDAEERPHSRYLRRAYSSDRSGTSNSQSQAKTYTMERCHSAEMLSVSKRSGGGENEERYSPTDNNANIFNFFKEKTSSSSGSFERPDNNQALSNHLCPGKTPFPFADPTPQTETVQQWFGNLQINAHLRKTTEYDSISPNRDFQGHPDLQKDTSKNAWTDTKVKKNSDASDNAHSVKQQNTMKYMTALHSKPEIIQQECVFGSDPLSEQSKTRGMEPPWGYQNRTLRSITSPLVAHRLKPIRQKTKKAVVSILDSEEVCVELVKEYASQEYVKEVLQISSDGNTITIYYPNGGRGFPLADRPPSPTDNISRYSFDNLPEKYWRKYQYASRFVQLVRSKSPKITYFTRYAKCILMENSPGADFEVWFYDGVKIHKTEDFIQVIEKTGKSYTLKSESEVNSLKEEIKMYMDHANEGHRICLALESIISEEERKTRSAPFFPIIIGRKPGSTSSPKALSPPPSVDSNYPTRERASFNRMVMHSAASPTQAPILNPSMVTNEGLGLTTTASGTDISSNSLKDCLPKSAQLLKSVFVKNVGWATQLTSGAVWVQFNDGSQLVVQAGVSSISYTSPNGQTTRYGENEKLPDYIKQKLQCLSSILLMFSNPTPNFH
Format: binding
Outline: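 HEK293T cells transiently expressing PLK4-NanoLuc, plated at 17000 cells/well with K-5 tracer and compound, incubated 2 h at 37 °C/5% CO2. After substrate/inhibitor mix, 610/450 nm emission ratio ×1000 gave mBRET; IC50 from 4-parameter fit.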

| Compound | IC50 [nM] |
| --- | --- |
| Cc1cc(Nc2nc(N(C)c3c(F)cc(C(=O)N4CCOCC4)cc3F)nc(-c3cn(C)cn3)c2C2CC2)n[nH]1 [Compound 356] | 260 |
| Cc1cc(Nc2nc(N(C)c3c(F)cc(S(C)(=O)=O)cc3F)nc(Nc3cc(C)[nH]n3)c2C2CC2)n[nH]1 [Compound 313] | 18 |
| COCc1c(-c2nc(N(C)c3c(F)cc(S(C)(=O)=O)cc3F)nc(Nc3cc(C)[nH]n3)c2C2CC2)cnn1C [Compound 249] | 2 |
| COc1c(Nc2cc(C)[nH]n2)nc(-n2ccc3cc(S(C)(=O)=O)ccc32)nc1-c1cnn(C)c1 [Compound 89] | 1700 |
| COc1c(Nc2cc(C)[nH]n2)nc(N(C)c2ccc(S(=O)(=O)C(C)(C)C)cc2F)nc1-c1cnn(C)c1 [Compound 76] | 46 |
| Cc1cc(Nc2nc(Sc3ccc(S(C)(=O)=O)cc3F)cc(-c3cnn(C)c3)c2C2CC2)n[nH]1 [Compound 94] | 110 |
| Cc1cc(Nc2nc(N(C)c3c(F)cc(S(C)(=O)=O)cc3F)nc(-c3cc(C#N)n(C)n3)c2C2CC2)n[nH]1 [Compound 145] | 18 |
| Cc1cc(Nc2nc(N(C)c3c(F)cc(S(C)(=O)=O)cc3F)nc(-c3cn(C)nc3C(N)=O)c2C2CC2)n[nH]1 [Compound 251] | 310 |
| Cc1cc(Nc2nc(N(C)c3c(F)cc(S(C)(=O)=O)cc3F)nc(-c3ncn(C)c3C#N)c2C2CC2)n[nH]1 [Compound 173] | 360 |
| COCCn1ccc(-c2nc(N(C)c3c(F)cc(S(C)(=O)=O)cc3F)nc(Nc3cc(C)[nH]n3)c2C2CC2)n1 [Compound 150] | 15 |
| Cc1cc(Nc2nc(N(C)c3c(F)cc(C4CC4)cc3F)nc(-c3cn(C)cn3)c2C2CC2)n[nH]1 [Compound 343] | 26 |
| Cc1cn(-c2nc(N(C)c3ccc(S(C)(=O)=O)cc3F)nc(Nc3cc(C)[nH]n3)c2C2CC2)cn1 [Compound 107] | 120 |
| COc1c(Nc2cc(C)[nH]n2)nc(Oc2ccc(S(C)(=O)=O)cc2Br)nc1-c1cnn(C)c1 [Compound 33] | 1100 |
| Cc1cc(Nc2nc(N(C)c3c(F)cc(S(C)(=O)=O)cc3F)nc(-c3cnn(C)c3C(=O)N(C)C)c2C2CC2)n[nH]1 [Compound 260] | 5 |
| Cc1cc(Nc2nc(N(C)c3c(F)cc(S(C)(=O)=O)cc3F)nc(-c3cn[nH]c3C(C)C)c2C2CC2)n[nH]1 [Compound 352] | 3 |
| COc1c(-c2nc(N(C)c3c(F)cc(S(C)(=O)=O)cc3F)nc(Nc3cc(C)[nH]n3)c2C2CC2)cnn1C [Compound 154] | 10 |
| Cc1cc(Nc2nc(N(C)c3c(F)cc(S(C)(=O)=O)cc3F)nc(-c3cnn(C)c3C(=O)N3CCC3)c2C2CC2)n[nH]1 [Compound 263] | 9 |
| CN(c1nc(Nc2cc(C3CC3)[nH]n2)c(C2CC2)c(-c2cnn(CC(C)(C)O)c2)n1)c1c(F)cc(S(C)(=O)=O)cc1F [Compound 297] | 14 |
| Cc1cnn(-c2nc(N(C)c3ccc(S(C)(=O)=O)cc3F)nc(Nc3cc(C)[nH]n3)c2C2CC2)c1 [Compound 112] | 110 |
| Cc1cc(Nc2nc(N(C)c3c(F)cc(Br)cc3F)nc(-c3cn(C)cn3)c2C2CC2)n[nH]1 [Compound 335] | 43 |
| CCc1cc(Nc2nc(N(C)c3c(F)cc(S(C)(=O)=O)cc3F)nc(-c3cnn(C)c3)c2C2CC2)n[nH]1 [Compound 258] | 5 |
| COCc1nc(-c2nc(N(C)c3c(F)cc(S(C)(=O)=O)cc3F)nc(Nc3cc(C4CC4)[nH]n3)c2C2CC2)cn1C [Compound 272] | 3 |
| Cc1cc(Nc2nc(N(C)c3c(F)cc(S(C)(=O)=O)cc3Cl)nc(-c3cnn(C)c3)c2C2CC2)n[nH]1 [Compound 118] | > 5000 |
| Cc1cc(Nc2nc(N(C)c3ccc(S(C)(=O)=O)cc3F)nc(-c3cn(C)cn3)c2C2CC2)n[nH]1 [Compound 17, 5-cyclopropyl-N^2-(2-fluoro-4-(methylsulfonyl)phenyl)-N^2-methyl-6-(1-methyl-1H-imidazol-4-yl)-N^4-(5-methyl-1H-pyrazol-3-yl)pyrimidine-2,4-diamine] | 20 |
| CN(c1nc(Nc2cc(C3CC3)[nH]n2)c(C2CC2)c(-c2ccnn2C2CC2)n1)c1c(F)cc(S(C)(=O)=O)cc1F [Compound 331] | 14 |

| Compound | IC50 [nM] |
| --- | --- |
| Cc1cc(Nc2nc(N(C)c3c(F)cc(S(C)(=O)=O)cc3F)nc(-c3cn(C)c(C(=O)N(C)C)n3)c2C2CC2)n[nH]1 [Compound 293] | 14 |
| COc1c(Nc2cc(C)[nH]n2)nc(Oc2ccc(N(C)S(C)(=O)=O)cc2)nc1-c1cnn(C)c1 [Compound 31] | 620 |
| Cc1cc(Nc2nc(N(C)c3c(F)cc(C4CCOCC4)cc3F)nc(-c3cn(C)cn3)c2C2CC2)n[nH]1 [Compound 350] | 31 |
| Cc1cc(Nc2nc(N(C)c3c(F)cc(S(C)(=O)=O)cc3F)nc(-c3cn(C4CCOCC4)nc3C)c2C2CC2)n[nH]1 [Compound 185] | 21 |
| Cc1cc(Nc2nc(N(C)c3c(F)cc(C(=O)N4CCC4)cc3F)nc(-c3cn(C)cn3)c2C2CC2)n[nH]1 [Compound 359] | 65 |
| Cc1cc(Nc2nc(N(C)c3c(F)cc(S(C)(=O)=O)cc3F)nc(-c3ccn(C(F)F)n3)c2C2CC2)n[nH]1 [Compound 155] | 10 |
| Cc1cc(Nc2nc(N(C)c3c(F)cc(S(C)(=O)=O)cc3F)nc(-c3cn(C)nc3C#N)c2C2CC2)n[nH]1 [Compound 115] | 22 |
| Cc1cc(Nc2nc(N(C)c3c(F)cc(S(C)(=O)=O)cc3F)nc(N3CCO[C@H](C(F)(F)F)C3)c2C2CC2)n[nH]1 [Compound 299] | 180 |
| COc1c(Nc2cc(C)[nH]n2)nc(Nc2ccc(S(C)(=O)=O)cc2)nc1-c1cnn(C)c1 [Compound 37] | 550 |
| Cc1cc(Nc2nc(N(C)c3c(F)cc(S(C)(=O)=O)cc3F)nc(-c3cn(CCO)cn3)c2C2CC2)n[nH]1 [Compound 225] | 89 |
| CN(c1nc(Nc2cc(C3CC3)[nH]n2)c(C2CC2)c(-c2ccn(CCO)n2)n1)c1c(F)cc(S(C)(=O)=O)cc1F [Compound 265] | 5 |
| Cc1cc(Nc2nc(N(C)c3cc(F)c(S(C)(=O)=O)cc3F)nc(-c3ccn(C(F)F)n3)c2C2CC2)n[nH]1 [Compound 194] | 63 |
| COc1c(Nc2cc(C)[nH]n2)nc(Sc2ccc(S(C)(=O)=O)cc2F)c(C)c1-c1cnn(C)c1 [Compound 22, 6-((2-fluoro-4-(methylsulfonyl)phenyl)thio)-3-methoxy-5-methyl-N-(5-methyl-1H-pyrazol-3-yl)-4-(1-methyl-1H-pyrazol-4-yl)pyridin-2-amine] | 96 |
| Cc1cc(Nc2nc(N(C)c3c(F)cc(S(C)(=O)=O)cc3F)nc(-c3ncn(C)c3C)c2C2CC2)n[nH]1 [Compound 283] | 45 |
| Cc1cc(Nc2nc(N(C)c3ccc(S(C)(=O)=O)cc3F)nc(N3CCOc4ccncc43)c2C2CC2)n[nH]1 [Compound 110, 5-cyclopropyl-6-(2,3-dihydro-4H-pyrido[4,3-b][1,4]oxazin-4-yl)-N^2-(2-fluoro-4-(methylsulfonyl)phenyl)-N^2-methyl-N^4-(5-methyl-1H-pyrazol-3-yl)pyrimidine-2,4-diamine] | 160 |
| CCn1cnc(-c2nc(N(C)c3c(F)cc(S(C)(=O)=O)cc3F)nc(Nc3cc(C)[nH]n3)c2C2CC2)c1 [Compound 136] | 5 |
| Cc1cc(Nc2nc(N(C)c3c(F)cc(S(C)(=O)=O)cc3F)nc(-c3cn(C)c(C4(O)CCC4)n3)c2C2CC2)n[nH]1 [Compound 322] | 12 |
| Cc1cc(Nc2nc(N(C)c3c(F)cc(S(C)(=O)=O)cc3F)nc(N3CCO[C@@H](C(F)(F)F)C3)c2C2CC2)n[nH]1 [Compound 300] | 150 |
| Cc1cc(Nc2nc(N(C)c3c(F)cc(S(C)(=O)=O)cc3F)nc(-c3cc(C(N)=O)n(C)n3)c2C2CC2)n[nH]1 [Compound 321] | 11 |
| Cc1cc(Nc2nc(N(C)c3c(F)cc(S(C)(=O)=O)cc3F)nc(-c3cnn4c3COCC4)c2C2CC2)n[nH]1 [Compound 182] | 11 |
| Cc1cc(Nc2nc(N(C)c3c(F)cc(S(C)(=O)=O)cc3F)nc(N3CCN(C)C(=O)C3)c2C2CC2)n[nH]1 [Compound 184] | 33 |
| Cc1cc(Nc2nc(N(C)c3c(F)cc(S(C)(=O)=O)cc3F)nc(-c3cn(C(F)F)cn3)c2C2CC2)n[nH]1 [Compound 128] | 6 |
| Cc1cc(Nc2nc(N(C)c3c(F)cc(S(C)(=O)=O)cc3F)nc(N3CCn4nccc4C3)c2C2CC2)n[nH]1 [Compound 250] | 21 |
| Cc1cc(Nc2nc(N(C)c3c(F)cc(S(C)(=O)=O)cc3F)nc(-c3cnn(CC#N)c3)c2C2CC2)n[nH]1 [Compound 206] | 4 |
| Cc1cc(Nc2nc(N(C)c3c(F)cc(S(C)(=O)=O)cc3F)nc(-c3cn(CCOC(F)(F)F)c(C)n3)c2C2CC2)n[nH]1 [Compound 259] | 7 |
